# Results published in patent US20070066674A1, “Tricyclic imidzopyridines for use as gastric secretion inhibitors” (Altana Pharma AG, priority 2003, published 2007).
# Test system: pentagastrin-stimulated acid secretion of the perfused rat stomach
# Experiment: Secretion-inhibiting action on the perfused rat stomach
# Format: in vivo
# Settings: dose 1 μmol/kg i.d., anesthetized CD rat, intraduodenal administration
# Text: In Table A which follows, the influence of the compounds of the formula 1 according to the invention and of their optical antipodes of the formula 2 on the pentagastrin-stimulated acid secretion of the perfused rat stomach after intraduodenal administration in vivo is shown.
# The abdomen of anesthetized rats (CD rat, female, 200-250 g; 1.5 g/kg i.m. urethane) was opened after tracheotomy by a median upper abdominal incision and a PVC catheter was fixed transorally in the esophagus and another via the pylorus such that the ends of the tubes just projected into the gastric lumen. The catheter leading from the pylorus led outward into the right abdominal wall through a side opening.
# After thorough rinsing (about 50-100 ml), warm (37° C.) physiological NaCl solution was continuously passed through the stomach (0.5 ml/min, pH 6.8-6.9; Braun-Unita I). The pH (pH meter 632, glass electrode EA 147; φ=5 mm, Metrohm) and, by titration with a freshly prepared 0.01 N NaOH solution to pH 7 (Dosimat 665 Metrohm), the secreted HCl were determined in the effluent in each case collected at an interval of 15 minutes.
# The gastric secretion was stimulated by continuous infusion of […] (=1.65 ml/h) of i.v. pentagastrin (left femoral vein) about 30 min after the end of the operation (i.e. after determination of 2 preliminary fractions). The substances to be tested were administered intraduodenally in a 2.5 ml/kg liquid volume 60 min after the start of the continuous pentagastrin infusion. The body temperature of the animals was kept at a constant 37.8-38° C. by infrared irradiation and heat pads (automatic, stepless control by means of a rectal temperature sensor).
row,SMILES,Inhibition of acid secretion (%)
1,"Cc1nc2c3c(c(C(=O)N(C)C)cn2c1C)CC[C@@H](c1ccccc1)O3.O=C(O)C(O)C(O)C(=O)O [Example 1, (9S)-2,3-Dimethyl-9-phenyl-7H8,9dihydro-pyrano[2,3-c]-imidazo[1,2-a]pyridine-6-carboxylic acid dimethylamide (R,R)-tartrate]",100
2,"Cc1nc2c3c(c(C(=O)N(C)C)cn2c1C)CC[C@@H](c1ccccc1)O3 [Example 2, (9S)-2,3-Dimethyl-9-phenyl-7H-8,9-dihydro-pyrano[2,3c]-imidazo[1,2-a]pyridine-6-carboxylic acid dimethylamide]",100
3,"CNC(=O)c1cn2c(C)c(C)nc2c2c1CC[C@@H](c1ccccc1)O2 [Example 7, (9S)-2,3-Dimethyl-9-phenyl-7H-8,9-dihydro-pyrano[2,3-c]-imidazo[1,2-a]pyridine-6-carboxylic acid methylamide]",100
4,"Cc1ccccc1[C@@H]1CCc2c(C(=O)N(C)C)cn3c(C)c(C)nc3c2O1 [Example 9, (9S)-2,3-Dimethyl-9-(2-methylphenyl)-7H-8,9-dihydro-pyrano[2,3-c]-imidazo[1,2-a]pyridine-6-carboxylic acid dimethylamide]",100
5,"Cc1nc2c3c(c(C(=O)N(C)C)cn2c1C)CC[C@@H](c1ccccc1F)O3 [Example 10, (9S)-9-(2-Fluorophenyl)-2,3-dimethyl-7H-8,9-dihydro-pyrano[2,3-c]-imidazo[1,2-a]pyridine-6-carboxylic acid dimethylamide]",100
6,"Cc1nc2c3c(c(C(=O)N(C)C)cn2c1C)CC[C@@H](c1ccc(F)cc1)O3 [Example 11, (9S)-9-(4-Fluorophenyl)-2,3-dimethyl-7H-8,9-dihydro-pyrano[2,3-c]-imidazo[1,2-a]pyridine-6-carboxylic acid dimethylamide]",100
7,"Cc1ccccc1[C@H]1CCc2c(C(=O)N(C)C)cn3c(C)c(C)nc3c2O1 [I, (9R)-2,3-Dimethyl-9-(2-methylphenyl)-7H-8,9-dihydro-pyrano[2,3-c]-Imidazo[1,2-a]pyridine-6-carboxylic acid dimethylamide]",<50
8,"Cc1nc2c3c(c(C(=O)N(C)C)cn2c1C)CC[C@H](c1ccc(F)cc1)O3 [K, (9R)-9-(4-Fluorophenyl)-2,3dimethyl-7H-8,9-dihydro-pyrano[2,3-c]-imidazo[1,2-a]pyridine-6-carboxylic acid dimethylamide]",<40

# Same assay, conditions: dose 2 μmol/kg i.d., anesthetized CD rat, intraduodenal administration
row,SMILES,Inhibition of acid secretion (%)
1,"Cc1nc2c3c(c(C(N)=O)cn2c1C)CC[C@@H](c1ccccc1)O3 [Example 8, (9S)-2,3-Dimethyl-9-phenyl-7H-8,9-dihydro-pyrano[2,3c]-imidazo[1,2-a]pyridine-6-carboxylic acid amide]",100

# Same assay, conditions: dose 3 μmol/kg i.d., anesthetized CD rat, intraduodenal administration
row,SMILES,Inhibition of acid secretion (%)
1,"Cc1nc2c3c(c(C(=O)N(C)C)cn2c1C)CC[C@H](c1ccccc1)O3.O=C(O)C(O)C(O)C(=O)O [A, (9R)2,3-Dimethyl-9-phenyl-7H-8,9-dihydro-pyrano[2,3-c]-imidazo[1,2-a]pyridine-6-carboxylic acid dimethylamide (S,S)-tartrate]",<40
2,"Cc1nc2c3c(c(C(=O)N(C)C)cn2c1C)CC[C@H](c1ccccc1)O3 [B, (9R)-2,3-Dimethyl-9-phenyl-7H-8,9-dihydro-pyrano[2,3-c]-imidazo[1,2-a]pyridine-6-carboxylic acid dimethylamide]",<40
3,"Cc1nc2c3c(c(C(=O)N(C)C)cn2c1Br)CC[C@H](c1ccccc1)O3 [D, (9R)-3-Bromo-2-methyl-9-phenyl-7H-8,9-dihydro-pyrano[2,3-c]-imidazo[1,2-a]pyridine-6-carboxylic acid dimethylamide]",<40
4,"CCc1c(C)nc2c3c(c(C(=O)N(C)C)cn12)CC[C@H](c1ccccc1)O3 [E, (9R)-3-Ethyl-2-methyl-9-phenyl-7H-8,9-dihydro-pyrano[2,3-c]-imidazo[1,2-a]pyridine-6-carboxylic acid dimethylamide]",<30
5,"Cc1nc2c3c(c(C(=O)N(C)C)cn2c1Br)CC[C@@H](c1ccccc1)O3 [Example 4, (9S)-3Bromo-2-methyl-9-phenyl-7H-8,9-dihydro-pyrano[2,3-c]-imidazo[1,2-a]pyridine-6-carboxylic acid dimethylamide]",>60
6,"CCc1c(C)nc2c3c(c(C(=O)N(C)C)cn12)CC[C@@H](c1ccccc1)O3 [Example 5, (9S)-3-Ethyl-2-methyl-9-phenyl-7H-8,9-dihydro-pyrano[2,3c]-imidazo[1,2-a]pyridine-6-carboxylic acid dimethylamide]",>70
7,"Cc1nc2c3c(c(C(=O)N4CCCC4)cn2c1C)CC[C@@H](c1ccccc1)O3 [Example 6, (9S)-(2,3-Dimethyl-9-phenyl-7H-8,9-dihydro-pyrano[2,3c]-imidazo[1,2-a]pyridin-6-yl)-pyrrolidin-1-yl methanone]",100
8,"Cc1nc2c3c(c(C(=O)N(C)C)cn2c1C)CC[C@@H](c1cccs1)O3 [Example 12, (9S)-2,3-Dimethyl-9-thiophen-2-yl-7H-8,9-dihydro-pyrano[2,3-c]-imidazo[1,2-a]pyridine-6-carboxylic acid dimethylamide]",100
9,"COCc1cn2c(C)c(C)nc2c2c1CC[C@@H](c1ccccc1)O2 [Example 13, (9S)-6-Methoxymethyl-2,3-dimethyl-9-phenyl-7H-8,9-dihydro-pyrano[2,3-c]-imidazo[1,2-a]pyridine]",100
10,"Cc1nc2c3c(c(C(=O)N4CCCC4)cn2c1C)CC[C@H](c1ccccc1)O3 [F, (9R)-(2,3-Dimethyl-9-phenyl-7H-8,9-dihydro-pyrano[2,3-c]-imidazo[1,2-a]pyridin-6-yl)-pyrrolidin-1-yl methanone]",<40
11,"CNC(=O)c1cn2c(C)c(C)nc2c2c1CC[C@H](c1ccccc1)O2 [G, (9R)-2,3-Dimethyl-9-phenyl-7H-8,9-dihydro-pyrano[2,3-c]-imidazo[1,2-a]pyridine-6-carboxylic acid methylamide]",<40
12,"Cc1nc2c3c(c(C(N)=O)cn2c1C)CC[C@H](c1ccccc1)O3 [H, (9R)-2,3-Dimethyl-9-phenyl-7H-8,9-dihydro-pyrano[2,3-c]-imidazo[1,2-a]pyridine-6-carboxylic acid amide]",<40
13,"Cc1nc2c3c(c(C(=O)N(C)C)cn2c1C)CC[C@H](c1ccccc1F)O3 [J, (9R)-9-(2-Fluorophenyl)-2,3-dimethyl-7H-8,9-dihydro-pyrano[2,3c]-imidazo[1,2-a]pyridine-6-carboxylic acid dimethylamide]",<50

# Same assay, conditions: dose 6 μmol/kg i.d., anesthetized CD rat, intraduodenal administration
row,SMILES,Inhibition of acid secretion (%)
1,"Cc1nc2c3c(c(C(=O)N(C)C)cn2c1CO)CC[C@H](c1ccccc1)O3 [C, (9R)-3-Hydroxymethyl-2-methyl-9-phenyl-7H-8,9-dihydro-pyrano[2,3c]-imidazo[1,2-a]pyridine-6-carboxylic acid dimethylamide]",<30
2,"Cc1nc2c3c(c(C(=O)N(C)C)cn2c1CO)CC[C@@H](c1ccccc1)O3 [Example 3, (9S)-3-Hydroxymethyl-2-methyl-9-phenyl-7H-8,9-dihydro-pyrano[2,3-c]-imidazo[1,2-a]pyridine-6-carboxylic acid dimethylamide]",>50
